Laboratory results as given in patent US10058587B2, “Peptide composition for cancer treatment by inhibiting TRPV6 calcium channel activity” (priority 2008, dated 2018).
Where no end group is shown, it is not given here.

How the values were obtained:
[1] = Tissue distribution of Cy5.5-labeled peptides by optical imaging; format: in vivo, CD1 mice; settings: four hours after i.v. injection of 100 ug
Excerpt: SorC13 and SorC27 were labeled with the near-infrared probe, Cy5.5. SorC13 was labeled at lysine-1 and lysine-8 with the infrared fluorescent probe cy5.5 through reaction with Cy5.5 NHS ester-activated process. SorC27 was labeled at the single cysteine thiol with Cy5.5 maleamide-activated reaction. The labeled peptides were purified with a combination of size exclusion chromatography and HPLC. The label, Cy5.5, fluoresces in the infra-red region after excitation with a scanning laser. The low energy laser is able to penetrate the animal to about 1 cm and, thus, by scanning prone and supine positions, the presence of the tagged peptides can be quantified in three dimensions.
Cy5.5-labeled peptides were intravenously injected into CD1 mice (4 for each compound) at 100 ug per animal in 100 uL, and animals were imaged live using an optical imaging system, Optix eXplorer (GE Healthcare Systems) at different time points (30 min, 90 min, 4 h). […] The bio-distribution of the labeled peptides in different organs and tissues were visualized and relatively quantified by optical imaging analysis. This protocol allows for visualization of the location of the labeled peptides and how the location changes over time. […] Nodes that accumulated the labeled peptides are indicated by line 1 (superfacial cervical nodes), line 4 (axillary nodes), line 5 (brachial nodes), line 8 (mesenteric nodes) and line 9 (inguinal nodes). FIGS. 8, 9 and 10 show the amounts of labeled peptides in various organs ex vivo.

human TRPV6b = target: T1, human TRPV6b (Homo sapiens, UniProt Q9H1D0); experiment: Whole-cell patch clamp of calcium store operated current (ISOC) through TRPV6 in transfected LnCaP cells; format: cell-based
T1 construct: expressed in transfected cells; host or cells: LnCaP (ATCC CRL-1740), human lymph node prostate cancer cells
T1 sequence (Q9H1D0 41-765 limits assumed): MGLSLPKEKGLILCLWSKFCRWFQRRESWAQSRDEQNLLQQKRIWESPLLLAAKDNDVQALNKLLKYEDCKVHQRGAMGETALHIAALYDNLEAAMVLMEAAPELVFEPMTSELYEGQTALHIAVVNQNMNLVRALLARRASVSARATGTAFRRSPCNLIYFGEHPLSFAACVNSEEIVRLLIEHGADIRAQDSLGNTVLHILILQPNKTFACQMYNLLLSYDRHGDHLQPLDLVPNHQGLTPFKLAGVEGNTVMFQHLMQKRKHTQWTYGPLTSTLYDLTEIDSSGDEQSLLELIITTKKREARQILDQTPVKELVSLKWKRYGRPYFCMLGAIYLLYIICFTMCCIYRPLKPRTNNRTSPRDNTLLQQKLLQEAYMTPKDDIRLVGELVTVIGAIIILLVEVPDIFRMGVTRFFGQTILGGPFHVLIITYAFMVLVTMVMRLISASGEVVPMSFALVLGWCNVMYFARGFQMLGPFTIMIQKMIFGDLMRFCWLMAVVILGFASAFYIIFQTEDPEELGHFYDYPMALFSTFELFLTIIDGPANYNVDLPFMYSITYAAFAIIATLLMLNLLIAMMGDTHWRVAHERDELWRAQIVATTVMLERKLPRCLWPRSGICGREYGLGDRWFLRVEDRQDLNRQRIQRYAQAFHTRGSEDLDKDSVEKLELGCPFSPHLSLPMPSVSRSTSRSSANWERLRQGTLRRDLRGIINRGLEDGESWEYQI
Experimental: An expression vector (pCAGS-IRES-hTRPV6b) (Bodding et al. 2003) containing the nucleotide code for human TRPV6b was transfected into and expressed by human lymph node prostate cancer (LnCaP, ATCC CRL-1740). Patch clamping with whole-cell current acquisition was used to measure the calcium current through this channel. Cells were treated and calcium store operated current (ISOC) was measured with either SorC13 (n=90) or SorC27 (n=30) in a closed-circuit perfusion for 3 min at each of cumulative concentrations of 0 (baseline), 100 nM, 500 nM 1 uM, 30 uM and 100 uM. Washout perfusion was done at 2 mL/min for 3 min. […] Further, both C-peptides are very strong inhibitors of calcium current through the TRPV6 channel with inhibition constants in the 100 nM range.

[2] = test system: T47D breast cancer xenografts; experiment: T-47D breast cancer xenograft, SorC13 with Paclitaxel (Example 27); format: in vivo, NOD/SCID mice; settings: for % ΔT/ΔC (tumor volume normalized to control) / Mean tumour volume: alone or with SorC13; for Mean tumour volume: after 12-day rest post-treatment; for Mean tumor volume: day 12 of treatment, alone or with SorC13 300 mg/kg
Experimental: Tumor volumes (V) were calculated by caliper measurement using standard measurements of the width (W), length (L) and thickness (T) of tumors. Animals were randomized into treatment groups so that the median tumor volumes of each group were similar at the start of dosing. Percentage ΔT/ΔC values, as a measure of efficacy, were determined where ΔC refers to change in volume of control or untreated tumor, and ΔT refers to change in volume of treated tumor.
Animals were intraperitoneally (i.p.) injected with the vehicular control, or the low, medium or high doses of CAT or CAT and SorC13. Mice received low medium or high doses of CAT or CAT and SorC13 by i.p. injection every day for 12 days or CAT injections as set out in Table 10. Paclitaxel was injected first, followed by carboplatin 30 minutes later and then SorC13. The tumor volume and body weights were measured every day. As well, general health of the animals was monitored every day.
The human […] breast cancer cell line T-47D (ATCC #HTB-133), was cultured in growth media prepared with ATCC complete growth medium. The base medium for the T-47D cell line is ATCC-formulated RPMI-1640 Medium. The complete growth medium is supplemented with 0.2 Units/ml bovine insulin and fetal bovine serum to a final concentration of 10% (v/v). Cells were cultured at 37° C. in an atmosphere of 95% air and 5% carbon dioxide with sub-culturing done according to ATCC guidelines.
The cell preparation, formulation, implantation, measurement and treatment procedures were otherwise as described in Example 26 and Table 10 but with Paclitaxel at low (6 mg/kg), medium (10 mg/kg) and high (16 mg/kg) doses.

With “SorC27-Cy5.5: SorC27 labeled at the single cysteine thiol with Cy5.5 (EGKLSSNDTEGGLC(Cy5.5)KEFLHPSKVDLPR)” the “accumulation at lymph nodes (superfacial cervical, axillary, branchial, mesenteric, inguinal)” value [1] was “Significant accumulation”.

For `C#CCN1C(C)=C(C(=O)OC)C(c2cccc([N+](=O)[O-])c2)C(C(=O)OCC)=C1C` (stereo not drawn) [MRS-1845, N-propargylnitrendipene, reference compound], the “inhibition of the calcium current” value (human TRPV6b; positive control at 5 uM) was “demonstrated inhibition of the calcium current”.

For `CC(=O)O[C@H]1C(=O)[C@@]2(C)[C@H]([C@H](OC(=O)c3ccccc3)[C@]3(O)C[C@H](OC(=O)[C@H](O)[C@@H](NC(=O)c4ccccc4)c4ccccc4)C(C)=C1C3(C)C)[C@]1(OC(C)=O)CO[C@@H]1C[C@@H]2O` [Paclitaxel], the “% ΔT/ΔC (tumor volume normalized to control)” value ([2]; Day 6, high Paclitaxel (16 mg/kg)) was 17.8%, the “% ΔT/ΔC (tumor volume normalized to control)” value ([2]; Day 6, low Paclitaxel (6 mg/kg)) was 26.0% and the “% ΔT/ΔC (tumor volume normalized to control)” value ([2]; Day 6, medium Paclitaxel (10 mg/kg)) was −4.0%. The “% ΔT/ΔC (tumor volume normalized to control)” value ([2]; Day 12, high Paclitaxel (16 mg/kg)) was −96.4%, the “% ΔT/ΔC (tumor volume normalized to control)” value ([2]; Day 12, low Paclitaxel (6 mg/kg)) was 16.3% and the “% ΔT/ΔC (tumor volume normalized to control)” value ([2]; Day 12, medium Paclitaxel (10 mg/kg)) was −45.9%. The “% ΔT/ΔC (tumor volume normalized to control)” value ([2]; Day 18 (rest period), high Paclitaxel) was −112.4%, the “% ΔT/ΔC (tumor volume normalized to control)” value ([2]; Day 18 (rest period), low Paclitaxel) was 46.0% and the “% ΔT/ΔC (tumor volume normalized to control)” value ([2]; Day 18 (rest period), medium Paclitaxel) was −56.9%. The “% ΔT/ΔC (tumor volume normalized to control)” value ([2]; Day 24 (rest period), high Paclitaxel) was −88.4%, the “% ΔT/ΔC (tumor volume normalized to control)” value ([2]; Day 24 (rest period), low Paclitaxel) was 33.3% and the “% ΔT/ΔC (tumor volume normalized to control)” value ([2]; Day 24 (rest period), medium Paclitaxel) was −33.2%. The Mean tumour volume ([2]; high Paclitaxel (16 mg/kg)) was 20.24 mm^3, the Mean tumour volume ([2]; low Paclitaxel (6 mg/kg)) was 52.08 mm^3 and the Mean tumour volume ([2]; medium Paclitaxel (10 mg/kg)) was 35.52 mm^3. For the same compound, the Mean tumor volume ([2]; high Paclitaxel (16 mg/kg)) was 26.47 mm^3, the Mean tumor volume ([2]; low Paclitaxel (6 mg/kg)) was 46.37 mm^3 and the Mean tumor volume ([2]; medium Paclitaxel (10 mg/kg)) was 36.23 mm^3.

Compound HPSKVDLPR [SorC9, HPSKVDLPR] has a Kd (human TRPV6b) of roughly 90 nM.
